Test results as given in patent US20240132522A1, “HETEROCYCLIC COMPOUNDS AND METHODS OF USE THEREOF” (1cBio, Inc., priority 2022, published 2024).
pIC50: −log10 of the molar value. Structures can show the parent of a compound that is named as a salt.

Columns and labels:
[1] = tested on: DLD-1 BRCA2(−/−) colorectal adenocarcinoma cells; assay: Cell viability assay (Cell Titer-Glo), DLD-1 BRCA2(−/−); assay type: cell-based; conditions: Homo sapiens, DLD-1, 168 h, 7 days, 200 cells/well
Excerpt: (§1) In some embodiments, the biological assay measures the effects that compounds of the present disclosure may have on the viability of cells, e.g., the viability of cancer cells. In some embodiments, DLD-1 wild-type and DLD-1 BRCA2(−/−) colorectal adenocarcinoma cells, an isogenic pair of cell lines differing in the presence and absence, respectively, of both BRCA2 alleles, are used to measure the effect of the disclosed compounds on the viability of cancer cells.
(§2) In some embodiments, the cells are harvested during the logarithmic growth period, counted, and seeded at a specified count in the wells of a 96- or 384-well cell culture plate. In some embodiments, after seeding, the cells are incubated, e.g., at 37° C., 5% CO2 overnight. In some embodiments, the cells are treated with compounds, e.g., with serially diluted test compounds at 8-11 concentrations within a desired concentration range, e.g., from 1 nM-10 μM, for the generation of dose-response curves. In some embodiments, the plate is further incubated, e.g., for another 3-7 days in a humidified incubator at 37° C. and 5% CO2. In some embodiments, cell viability is assessed by luminescence measurement after addition of Cell Titer-Glo reagent (Promega, Madison, Wis.) according to the manufacturer's instructions. In some embodiments, cell viability IC50 values are calculated using XLFit, equation 201: y=A+((B−A)/(1+((x/C)^D))), where A=bottom, B=top, C=IC50, and D=slope. In some embodiments, the effects of the test compounds on the viability of other cell lines such as MDA-MB-436, MDA-MB-231, SUM149PT, HCC1395, and UWB1.289 are determined in an analogous method.
(§3) Compounds of the present disclosure were tested for their effects on the viability of cancer cells. DLD-1 wild-type and DLD-1 BRCA2(−/−) colorectal adenocarcinoma cells, an isogenic pair of cell lines differing in the presence and absence, respectively, of both BRCA2 alleles, were used. The cells were harvested during the logarithmic growth period, counted, and seeded at 50 cells/well for DLD-1 wild-type and 200 cells/well for DLD-1 BRCA2(−/−) in a 384-well cell culture plate. After seeding, cells were incubated at 37° C., 5% CO2 overnight. Cells were treated with serially diluted test compounds at 10 concentrations from 1.5 nM-30 μM) for generation of dose response curves. The plate was further incubated for another 7 days in a humidified incubator at 37° C. and 5% CO2. Cell viability was assessed by luminescence measurement after addition of Cell Titer-Glo reagent (Promega, Madison, Wis.) according to the manufacturer's instructions. Cell viability IC50 values were calculated using XLFit, equation 201: y=A+((B−A)/(1+((x/C)^D))), where A=bottom, B=top, C=IC50, and D=slope. IC50 values are shown in Table B and are presented in ranges, in which “+++”<300 nM, 300 nM≤“++”<3000 nM, and “+”≥3000 nM. Effects of the test compounds on the viability of other cell lines such as MDA-MB-436, MDA-MB-231, SUM149PT, HCC1395, and UWB1.289 are determined in an analogous method.

[2] = tested on: DLD-1 wild-type colorectal adenocarcinoma cells; assay: Cell viability assay (Cell Titer-Glo), DLD-1 wild-type; assay type: cell-based; conditions: Homo sapiens, DLD-1, 168 h, 7 days, 50 cells/well
Excerpt: as §1, §2, §3

recombinant human PARP2 = recombinant human PARP2 (Homo sapiens, UniProt Q9UGN5); assay: PARP2 fluorescence polarization binding assay; conditions: binding IC50, GST-tagged PARP2 20 nM, PARPi-FL probe 3 nM, 4 h at RT
Procedure: In some embodiments, the biological assay measures PARP-2 binding by way of fluorescence polarization measurements. In some embodiments, binding of a test compound to recombinant human PARP-2 reduces the amount of binding of a fluorescent probe, and consequently reduces the detected level of fluorescence polarization. […] In some embodiments, the serial dilutions, e.g., 100 nL of serial dilution, 90 nL of serial dilution, 80 nL of serial dilution, 70 nL of serial dilution, 60 nL of serial dilution, 50 nL of serial dilution, 30 nL of serial dilution, 20 nL of serial dilution, or 10 nL of serial dilution, are added to a multi-welled plate, e.g., a 1536-well plate, a 384-well plate, or a 96-well plate. In some embodiments, PARP-2, e.g., GST-tagged PARP-2, is diluted in assay buffer, e.g., 50 μL of assay buffer, 40 μL of assay buffer, e.g., 30 μL of assay buffer, 20 μL of assay buffer, 10 μL of assay buffer, or 5 μL of assay buffer, and is added to the plate. In some embodiments, the plate is centrifuged, e.g., at 1000 rpm for 1 min, and incubated, e.g., incubated for 30 minutes at room temperature (RT). In some embodiments, a fluorescent probe, e.g., 10 μL of 6 nM PARPi-FL (TOCRIS, Cat #6461), is diluted in an assay buffer and is added to the plate. […] In some embodiments, the plate is centrifuged, e.g., at 1000 rpm for 1 minute, and the assay plate is incubated, e.g., for 4 h at RT. In some embodiments, the samples in each well are read using a plate reader, e.g., an Envision instrument using excitation=480 nm, and emission wavelength=FITC FP-P pol 535 nm & FITC FP-S pol 535 nm). […] In some embodiments, binding IC50 values are calculated using XLFit (equation 201: […])^D))), where A=bottom, B=top, C=IC50, and D=slope) with a floating top and bottom for curves. Compounds of the present disclosure were tested in a PARP2 fluorescence polarization binding assay at Pharmaron (Beijing, P.R. China). In this biochemical assay, binding of test compound to recombinant human PARP2 reduces the amount of binding of a fluorescent probe, and consequently reduces the detected level of fluorescence polarization. Test compound stock solutions were prepared in DMSO and then serially diluted into 10 concentrations by 3-fold dilution in a 384-well plate using a TECAN EVO200. […] Samples in each well were read using an Envision instrument (Perkin-Elmer; Ex=480 nm Em=FITC FP-P pol 535 nm & FITC FP-S pol 535 nm). […] Binding IC50 values were calculated using XLFit (equation 201: […])^D))), where A=bottom, B=top, C=IC50, and D=slope) with a floating top and bottom for curves.

recombinant human PARP2, sequence (Q9UGN5 whole entry): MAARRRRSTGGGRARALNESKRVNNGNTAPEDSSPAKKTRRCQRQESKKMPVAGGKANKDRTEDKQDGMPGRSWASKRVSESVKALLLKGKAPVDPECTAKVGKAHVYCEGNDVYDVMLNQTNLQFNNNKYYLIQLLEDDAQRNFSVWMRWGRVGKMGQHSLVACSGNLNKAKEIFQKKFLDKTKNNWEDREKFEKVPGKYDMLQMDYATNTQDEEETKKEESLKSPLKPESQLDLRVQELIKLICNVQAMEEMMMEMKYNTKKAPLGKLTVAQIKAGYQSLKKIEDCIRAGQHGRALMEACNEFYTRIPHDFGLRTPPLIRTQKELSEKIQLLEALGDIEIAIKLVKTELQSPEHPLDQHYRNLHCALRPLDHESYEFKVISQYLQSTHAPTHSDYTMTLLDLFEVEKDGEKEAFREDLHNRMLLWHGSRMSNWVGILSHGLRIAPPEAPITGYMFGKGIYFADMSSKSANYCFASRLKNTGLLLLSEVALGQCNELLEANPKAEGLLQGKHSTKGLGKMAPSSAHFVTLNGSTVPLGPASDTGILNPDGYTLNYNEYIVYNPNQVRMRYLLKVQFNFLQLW

Structure (SMILES) | pIC50 [1] | pIC50 [2] | pIC50 (recombinant human PARP2)
CCc1cc2ncc(CNC3CC(Nc4ccc(C(=O)NC)nc4)C3)cc2[nH]c1=O (stereo not drawn) [Compound No. 29, 5-((3-(((7-ethyl-6-oxo-5,6-dihydro-1,5-naphthyridin-3-yl)methyl)amino)cyclobutyl)amino)-N-methylpicolinamide] | ≤ 5.52 | ≤ 5.52 | ≤ 5.52
CCc1cc2ncc(CN3CC4CN(c5ccc(C(=O)NC)nc5)CC4C3)cc2[nH]c1=O (stereo not drawn) [Compound No. 7, 5-(5-((7-ethyl-6-oxo-5,6-dihydro-1,5-naphthyridin-3-yl)methyl)hexahydropyrrolo[3,4-c]pyrrol-2(1H)-yl)-N-methylpicolinamide] | 5.52 to 6.52 | ≤ 5.52 | ≤ 5.52
CCc1cc2ncc(CN3CCCN(c4ccc(C(=O)NC)nc4)CC3)cc2[nH]c1=O [Compound No. 6, 5-(4-((7-ethyl-6-oxo-5H-1,5-naphthyridin-3-yl)methyl)-1,4-diazepan-1-yl)-N-methylpyridine-2-carboxamide] | ≤ 5.52 | ≤ 5.52 | ≤ 5.52
CCc1cc2ncc(CN3CC4(C3)CN(c3ccc(C(=O)NC)nc3)C4)cc2[nH]c1=O [Compound No. 9, 5-(6-((7-ethyl-6-oxo-5,6-dihydro-1,5-naphthyridin-3-yl)methyl)-2,6-diazaspiro[3.3]heptan-2-yl)-N-methylpicolinamide formate] | ≤ 5.52 | ≤ 5.52 | ≤ 5.52
